# Measurements reported in patent EP0840781B1, “METHODS AND DEVICES FOR THE REMOVAL OF PSORALENS FROM BLOOD PRODUCTS” (Cerus Corporation, priority 1995, dated 1996).
# Where two headings read alike, the source gives them in different places.
# Tests used:
# HIV-1 = conditions: 1 Minute Irradiation
# Description: Pathogen inactivation efficiency of several compounds described herein was evaluated by examining the ability of the compounds to inactivate cell-free virus (HIV). Inactivation of cell-free HIV was performed as follows.
# As in the R17 assay, small aliquots of the compounds listed in TABLES 10 and 11, below, at the concentrations listed in the table, were added to stock HIV-1 to a total of 0.5 mL. The stock HIV (10^5 - 10^7 plaque forming units/mL) was in DMEM/15% FBS. […] Controls included HIV-I stock only, HIV-1 plus UVA only, and HIV-I plus the highest concentration of each psoralen tested, with no UVA. Post irradiation. all samples were store frozen at -70° C until assayed for infectivity by a microtiter plaque assay. Aliquots for measurement of residual HIV infectivity in the samples treated with a compound of the present invention were withdrawn and cultured.
# Residual HIV infectivity was assayed using an MT-2 infectivity assay. […] The assay medium was 85% DMEM (with a high glucose concentration) containing 100 µg of streptomycin, 100 U of penicillin, 50 µg of gentamicin, and 1 µg of amphotericin B per mL, 15% FBS and 2 µg of Polybrene (Sigma Chemical Co., St. Louis, Mo.) per mL. Test and control samples from the inactivation procedure were diluted in 50% assay medium and 50% normal human pooled plasma. The samples were serially diluted directly in 96-well plates (Coming Glass Works, Coming, N.Y.). The plates were mixed on an oscillatory shaker for 30 seconds and incubated at 37°C in a 5% CO2 atmosphere for 1 to 18 hours. […] After an additional 1 hour of incubation at 37°C in 5% CO2, 0.075 mL of assay medium containing 1.6% SeaPlaque agarose (FMC Bioproducts, Rockland, Maine) and prewarmed to 38.5°C was added to each well. The plates were kept at 37°C for a few minutes until several plates had accumulated and then centrifuged in plate carriers at 600 x g for 20 minutes in a centrifuge precooled to 10°C. In the centrifuge, cell monolayers formed prior to gelling of the agarose layer. The plates were incubated for 5 days at 37°C in 5% CO2 and stained by the addition of 0.05 mL of 50 µg/mL propidium iodide (Sigma Chemical Co.) in phosphate-buffered saline (pH 7.4) to each well. After 24 to 48 hours, the red fluorescence-stained microplaques were visualized by placing the plates on an 8,000 µW/cm^2 304 nm UV light box (Fotodyne, Inc., New Berlin, Wis.). The plaques were counted at a magnification of x20 to x25 through a stereomicroscope.
# R17 = experiment: r-17 bacteriophage assay: R17 treated with compound and UVA, remaining titer by plaque count on Hfr 3000 bacteria; assay type: cell-based; conditions: for R17 inactivation efficiency compared with AMT: varying concentration (Tables 7 and 8, FIGS. 6-10); for efficiency at inactivating R17 compared with AMT: constant concentration, varying doses of UV light 1.0-3.0 J/cm^2 (FIGS. 11-17)
# Description: In the r-17 assay, the bacteriophage was placed in a solution with each compound tested and was then irradiated. The ability of the phage to subsequently infect bacteria and inhibit their growth was measured. The bacteriophage was selected for its relatively accessible nucleic acid such that the culture growth inhibition would accurately reflect nucleic acid damage by the test compounds. The bacteriophage assay for nucleic acid binding to test compounds offers a safe and inexpensive procedure to identify compounds likely to display efficient pathogen inactivation. Previous experiments support that the r-17 assay accurately measures HIV-1 sensitivity to similar compounds. […] Modified Eagles Medium (DMEM) to a final phage concentration of 10^9/mL. An aliquot (0.5 mL) was transferred to a 1.5 mL snap-top polyethylene tube. […] Louis, MO). The tubes were placed in a light device as described in EXAMPLE 1 and irradiated for between 1 and 10 minutes. […] To make the dilutions. a 0.100 mL aliquot of the irradiated solution of phage and test compound was added to the first dilution tube of 0.4 mL of media then 0.020 mL of this solution was added to the second tube of 0.5 mL medium (1:25). […] After the top agar hardened, the plates were incubated at 37 °C overnight. The plaque forming units were then counted the following morning and the titer of the phage remaining after phototreatment was calculated based on the dilution factors. The following controls were run: the "phage only" in which phage was not treated with test compound and not irradiated (listed as "starting titer" in the tables below); the "UV only" in which the phage was irradiated in the absence of test compound; and the "dark" control in which the phage/test compound solution was not irradiated before it was diluted and plated. Compounds described herein were also tested at a constant concentration for varying doses of UV light. […] The compound tested was added at the desired concentration and the samples were vortexed. […] Between each 1.0 J/cm^2 intervals, 100µL was removed from each sample and placed in the first corresponding dilution tube, then five sequential dilutions were performed for each compound tested, at all 3 irradiation doses, as described above in this example. […] The contents of each tube was poured into its own LB plate and the plates were incubated overnight at 37 °C. Plaques were counted by visual inspection the following morning.
# [1] = test system: Salmonella typhimurium tester strains TA97a, TA98, TA100, TA102, TA1537 and TA1538; conditions: for mutagenic response (Ames, summary): two-fold or greater increase in revertants above background and dose dependent response
# Description: The second property that is important in testing a compound for use in methods described herein is mutagenicity. The most widely used mutagen/carcinogen screening assay is the Ames test. This assay is described by D.M. Maron and B.N. Ames in Mutation Research 113:173 ( 1983) and a specific screen is described in detail in Example 17, below. The Ames test utilizes several unique strains of Salmonella typhimurium that are histidine- dependent for growth and that lack the usual DNA repair enzymes. The frequency of normal mutations that render the bacteria independent of histidine (i.e., the frequency of spontaneous revertants) is low. The test allows one to evaluate the impact of a compound on this revenant frequency.
# Because some substances are not mutagenic by themselves, but are converted to a mutagen by metabolic action, the compound to be tested is mixed with the bacteria on agar plates along with the liver extract. The liver extract serves to mimic metabolic action in an animal.
# The mixtures are allowed to incubate. Growth of bacteria (if any) is checked by counting colonies.
# In this example the compounds described herein are tested for their dark mutagenicity using an Ames assay. The procedures used for the Salmonella mutagenicity test as described in detail by Maron and Ames were followed exactly. Maron, D.M. and B.N. Ames, Mutation Research 113: 173 ( 1983). A brief description for each procedure is given here. The tester strains TA97a, TA98, TA 100, TA102, TA1537 and TA1538 were obtained from Dr. Ames. TA97a, TA98, TA1537 and TA1538 are frameshift tester strains. TA100 and TA102 are base-substitution tester strains. Upon receipt each strain was cultured under a variety of conditions to confirm the genotypes specific to the strains.
# The first tests done with the strains were to determine the range of spontaneous reversion for each of the strains. With each mutagenicity experiment the spontaneous reversion of the tester strains to histidine independence was measured and expressed as the number of spontaneous revertants per plate. This served as the background controls.
# For all experiments, the pre-incubation procedure was used. In this procedure one vial of each tester strain was thawed and 20 µL of this culture was added to 6 mL of Oxoid Nutrient Broth #2. This solution was allowed to shake for 10 hours at 37°C. In the pre-incubation procedure, 0.1 mL of this overnight culture was added to each of the required number of sterile test tubes. To half of the tubes 0.5 mL of a 10% S-9 solution containing Aroclor 1254 induced rat liver extract (Molecular Toxicology Inc., Annapolis, MD), and MgCl2, KCl, glucose-6-phosphate, NADP, and sodium phosphate buffer (Sigma, St. Louis, Missouri) were added. To the other half of the tubes 0.5 mL of 0.2M sodium phospate buffer, pH 7.4, was used in place of the S-9 mixture (the - S9 samples). Finally 0.1 mL of the test solution containing either 0, 0.1, 0.5, 1, 5, 10, 50, 100, 250, or 500 µg/mL of the test compound was added. The 0.7 mL mixture was vonexed and then pre-incubated while shaking for 20 minutes at 37°C. After shaking, 2 mL of molten top agar supplemented with histidine and biotin were added to the 0.7 mL mixture and immediately poured onto a minimal glucose agar plate (volume of base agar was 20 mL). The top agar was allowed 30 minutes to solidify and then the plates were inverted and incubated for 44 hours at 37°C. After incubation the number of revertant colonies on each plate were counted.
# Maron and Ames (1983) describe the conflicting views with regard to the statistical treatment of data generated from the test.
# [2] = 32 µM, HIV Starting Titer Approximately 5 Logs (Table 10)
# [3] = 64 µM, HIV Starting Titer Approximately 5 Logs (Table 10)
# [4] = 16 µM, 1 Minute irradiation = 1.2 J/cm^2, Starting Titer Approx. 7.1 Logs (Table 8)
# [5] = 16 µM, HIV Starting Titer Approximately 5.4 Logs (Table 11)
# [6] = 32 µM, HIV Starting Titer Approximately 5.4 Logs (Table 11)
# [7] = 64 µM, HIV Starting Titer Approximately 5.4 Logs (Table 11)
# [8] = 32 µM, 1 Minute irradiation = 1.2 J/cm^2, Starting Titer Approx. 7.1 Logs (Table 8)
# [9] = 64 µM, 1 Minute irradiation = 1.2 J/cm^2, Starting Titer Approx. 7.1 Logs (Table 8)
# [10] = 16 µM, HIV Starting Titer Approximately 5 Logs (Table 10)
structure (smiles),measurement,setting,value
"Cc1oc2c(C)c3oc(=O)cc(C)c3cc2c1CCN [Compound 3, 4'-(2-aminoethyl)-4,5',8-trimethylpsoralen]",HIV Log Kill,HIV-1; [2],2.7
same,HIV Log Kill,HIV-1; [3],>3.8
same,R17 Log Kill,"R17; 8 µM, 1 Minute Irradiation, Starting Titer Approx. 7.2 Logs (Table 7)",>6.2
same,R17 Log Kill,"R17; 8 µM, 1 Minute irradiation = 1.2 J/cm^2, Starting Titer Approx. 7.1 Logs (Table 8)",5.6
same,R17 Log Kill,"R17; 16 µM, 1 Minute Irradiation, Starting Titer Approx. 7.2 Logs (Table 7)",>6.2
same,R17 Log Kill,R17; [4],>6.1
same,R17 Log Kill,"R17; 32 µM, 1 Minute Irradiation, Starting Titer Approx. 7.2 Logs (Table 7)",>6.2
same,R17 inactivation efficiency compared with AMT,R17,significantly higher inactivation efficiency than does AMT
same,"revertant colonies, TA100 +S9",[1]; 5 µg/plate,-19
same,"revertant colonies, TA100 -S9",[1]; 5 µg/plate,47
same,"revertant colonies, TA1538 +S9",[1]; 5 µg/plate,1
same,"revertant colonies, TA1538 -S9",[1]; 5 µg/plate,0
same,"revertant colonies, TA100 +S9",[1]; 10 µg/plate,8
same,"revertant colonies, TA100 -S9",[1]; 10 µg/plate,47
same,"revertant colonies, TA1538 +S9",[1]; 10 µg/plate,9
same,"revertant colonies, TA1538 -S9",[1]; 10 µg/plate,-6
same,"mutagenic response (Ames, summary)",[1],no mutagenicity
"Cc1oc2c(C)c3oc(=O)cc(C)c3cc2c1CNCCCOCCCCOCCN [Compound 9, 4'-(13-amino-2-aza-6,11-dioxa)tridecyl-4,5',8-trimethylpsoralen]",HIV Log Kill,HIV-1; [5],0.8
same,HIV Log Kill,HIV-1; [6],1.4
same,HIV Log Kill,HIV-1; [7],2.7
"Cc1oc2c(C)c3oc(=O)cc(C)c3cc2c1COCCCN [Compound 4, 4'-(5-amino-2-oxa)pentyl-4,5',8-trimethylpsoralen]",HIV Log Kill,HIV-1; [2],2.2
same,HIV Log Kill,HIV-1; [3],>3.6
same,R17 Log Kill,R17; [4],2.3
same,R17 Log Kill,R17; [8],4.3
same,R17 Log Kill,R17; [9],>6.1
same,"revertant colonies, TA100 +S9",[1]; 5 µg/plate,-10
same,"revertant colonies, TA100 -S9",[1]; 5 µg/plate,-41
same,"revertant colonies, TA1538 +S9",[1]; 5 µg/plate,7
same,"revertant colonies, TA1538 -S9",[1]; 5 µg/plate,-2
same,"revertant colonies, TA100 +S9",[1]; 10 µg/plate,-3
same,"revertant colonies, TA100 -S9",[1]; 10 µg/plate,3
same,"revertant colonies, TA1538 +S9",[1]; 10 µg/plate,-2
same,"revertant colonies, TA1538 -S9",[1]; 10 µg/plate,-2
same,"mutagenic response (Ames, summary)",[1],no mutagenicity
"Cc1oc2c(C)c3oc(=O)cc(C)c3cc2c1CNCCCCCN [Compound 10, 4'-(7-amino-2-aza)heptyl-4,5',8-trimethylpsoralen]",HIV Log Kill,HIV-1; [5],2.0
same,HIV Log Kill,HIV-1; [6],>3.5
same,HIV Log Kill,HIV-1; [7],>3.5
same,efficiency at inactivating R17 compared with AMT,R17,more efficient at inactivating R17 than was AMT
"Nc1c2ccccc2nc2ccccc12 [9-Amino-acridine, reference compound]","revertant colonies, TA98 -S9",[1]; 10 µg/plate,284
same,"revertant colonies, TA1537 -S9",[1]; 10 µg/plate,284
"Cc1cc(=O)oc2c(C)c3oc(CNCCN)c(C)c3cc12 [Compound 16, 5'-(4-amino-2-aza)butyl4,4',8-trimethylpsoralen]",R17 inactivation efficiency compared with AMT,R17,significantly higher inactivation efficiency than does AMT
"Cc1oc2c(C)c3oc(=O)cc(C)c3cc2c1COCCOCCNCCCCN [Compound 8, 4'-(12-amino-8-aza-2,5-dioxa)dodecyl-4,5',8-trimethylpsoralen]",HIV Log Kill,HIV-1; [10],1.1
same,HIV Log Kill,HIV-1; [2],1.9
same,HIV Log Kill,HIV-1; [3],3.7
"Cc1oc2c(C)c3oc(=O)cc(C)c3cc2c1CNCCCNCCCCNCCCN [Compound 15, 4'-(14-amino-2,6,11-triaza)tetradecyl-4,5',8-trimethylpsoralen]",efficiency at inactivating R17 compared with AMT,R17,more efficient at inactivating R17 than was AMT
"Cc1oc2c(C)c3oc(=O)cc(C)c3cc2c1COCCOCCN [Compound 7, 4'-(7-amino-2,5-oxa)heptyl-4.5',8-trimethylpsoralen]",HIV Log Kill,HIV-1; [10],0.8
same,HIV Log Kill,HIV-1; [2],2.1
same,HIV Log Kill,HIV-1; [3],3.5
same,R17 Log Kill,"R17; 16 µM, 1 Minute Irradiation, Starting Titer Approx. 7.1 Logs (Table 9)",>6
same,R17 Log Kill,"R17; 32 µM, 1 Minute Irradiation, Starting Titer Approx. 7.1 Logs (Table 9)",>6
same,R17 Log Kill,"R17; 64 µM, 1 Minute Irradiation, Starting Titer Approx. 7.1 Logs (Table 9)",>6
"[N-]=[N+]=[N-] [sodium azide, reference compound]","revertant colonies, TA100 -S9",[1]; 1.5 µg/plate (positive control),965
same,"revertant colonies, TA1538 -S9 (Table 18 (A))","[1]; 1.5 µg/plate (positive control), Table 18 (A), background 126",965
"Cc1oc2c(C)c3oc(=O)cc(C)c3cc2c1CNCCCN [Compound 5, 4'-(5-amino-2-aza)pentyl4,5',8-trimethylpsoralen]",HIV Log Kill,HIV-1; [10],0.9
same,HIV Log Kill,HIV-1; [2],1.3
same,HIV Log Kill,HIV-1; [3],>2.6
same,R17 Log Kill,R17; [4],5.6
same,R17 Log Kill,R17; [8],>6.1
same,R17 Log Kill,R17; [9],>6.1
same,R17 inactivation efficiency compared with AMT,R17,significantly higher inactivation efficiency than does AMT
"Cc1oc2c(C)c3oc(=O)cc(C)c3cc2c1CNCCCNCCCN [Compound 12, 4'-(9-amino-2,6-diaza)nonyl-4.5',8-trimethylpsoralen]",HIV Log Kill,HIV-1; [5],0.4
same,HIV Log Kill,HIV-1; [6],0.8
same,HIV Log Kill,HIV-1; [7],1.3
same,efficiency at inactivating R17 compared with AMT,R17,more efficient at inactivating R17 than was AMT
"OO [hydrogen peroxide, reference compound]","revertant colonies, TA102 -S9","[1]; Salmonella typhimurium, pH 7.4",660
